The test system of one assay is MV4-11 cell line. Nature of the assay: CellTiter-Glo Luminescent Cell Viability Assay, cell growth inhibition. The class given is cell-based. The following applies: Homo sapiens, 96 h, 4 days. Here is the method: (§1) Cell growth inhibitory activity of representative MDM2 protein degraders was determined using CellTiter-Glo® Luminescent Cell Viability Assay. Cells were seeded in 384-well white opaque cell culture plates at a density of 2,000 cells/well with serially diluted compounds and incubated at 37° C. in an atmosphere of 95% air and 5% CO2 for 4 days. Cell viability was determined using the CellTiter-Glo® Luminescent Cell Viability Assay Kit (Promega, Madison, WI) according to the manufacture's instruction. Briefly, a volume of CellTiter-Glo® Reagent equal to the volume of cell culture medium was added to each well, and then the plates were incubated at room temperature for 10-20 minutes. The luminescent signal was measured using a Tecan Infinite M1000 multimode microplate reader (Tecan, Morrisville, NC). The half maximal inhibitory concentration (IC50) was calculated using the GraphPad Prism 5 software (GraphPad Software, La Jolla, CA). Cpd. […] The structure of Cpd.
Turning to `O=C1CCC(N2C(=O)c3cccc(OCCOCCOCCOCCNC(=O)c4ccc(NC(=O)[C@@H]5NC6(CCCCC6)[C@@]6(C(=O)Nc7cc(Cl)ccc76)[C@H]5c5cccc(Cl)c5F)cc4)c3C2=O)C(=O)N1` (stereo partly drawn) [Cpd. No. 4, (3′R,4'S,5′R)-6″-chloro-4′-(3-chloro-2-fluorophenyl)-N-(4-((2-(2-(2-(2-((2-(2,6-dioxopiperidin-3-yl)-1,3-dioxoisoindolin-4-yl)oxy)ethoxy)ethoxy)ethoxy)ethyl)carbamoyl)phenyl)-2″-oxodispiro[cyclohexane-1,2′-pyrrolidine-3′,3″-indoline]-5′-carboxamide], inhibition was half-maximal at 6 nM (IC50).

A further assay concerns RS4; 11 cell line. The description is as above. In kind it is cell-based. The settings on record: Homo sapiens, 96 h, 4 days. The protocol: as §1
As for `O=C1CCC(N2C(=O)c3cccc(OCCOCCOCCOCCNC(=O)c4ccc(NC(=O)[C@@H]5NC6(CCCCC6)[C@@]6(C(=O)Nc7cc(Cl)ccc76)[C@H]5c5cccc(Cl)c5F)cc4)c3C2=O)C(=O)N1` (stereo partly drawn) [Cpd. No. 4, (3′R,4'S,5′R)-6″-chloro-4′-(3-chloro-2-fluorophenyl)-N-(4-((2-(2-(2-(2-((2-(2,6-dioxopiperidin-3-yl)-1,3-dioxoisoindolin-4-yl)oxy)ethoxy)ethoxy)ethoxy)ethyl)carbamoyl)phenyl)-2″-oxodispiro[cyclohexane-1,2′-pyrrolidine-3′,3″-indoline]-5′-carboxamide], half-maximal inhibition (IC50) was put at 14 nM.

As for `O=C1CCC(N2C(=O)c3cccc(CCCOCCNC(=O)c4ccc(NC(=O)[C@@H]5NC6(CCCCC6)[C@@]6(C(=O)Nc7cc(Cl)ccc76)[C@H]5c5cccc(Cl)c5F)cc4)c3C2=O)C(=O)N1` (stereo partly drawn) [Cpd. No. 34, (3′R,4'S,5′R)-6″-chloro-4′-(3-chloro-2-fluorophenyl)-N-(4-((2-(3-(2-(2,6-dioxopiperidin-3-yl)-1,3-dioxoisoindolin-4-yl)propoxy)ethyl)carbamoyl)phenyl)-2″-oxodispiro[cyclohexane-1,2′-pyrrolidine-3′,3″-indoline]-5′-carboxamide], the half-maximal inhibitory concentration (IC50) – broadly, the concentration needed to halve the response being measured – turned out to be 17.8 nM. This IC50 and that of the compound before are within 1.5-fold of each other. Regarding `CC1(C)CCC2(CC1)N[C@@H](C(=O)Nc1ccc(C(=O)NCCCOCCOCCOCCCNc3cccc4c3C(=O)N(C3CCC(=O)NC3=O)C4=O)cc1)[C@H](c1cccc(Cl)c1F)[C@]21C(=O)Nc2cc(Cl)ccc21` (stereo partly drawn) [Cpd. No. 53, (3′R,4'S,5′R)-6″-chloro-4′-(3-chloro-2-fluorophenyl)-N-(4-((3-(2-(2-(3-((2-(2,6-dioxopiperidin-3-yl)-1,3-dioxoisoindolin-4-yl)amino)propoxy)ethoxy)ethoxy)propyl)carbamoyl)phenyl)-4,4-dimethyl-2″-oxodispiro[cyclohexane-1,2′-pyrrolidine-3′,3″-indoline]-5′-carboxamide], the IC50 is 5.2 nM. The compound `CC(C)[C@@H](CS(=O)(=O)C(C)C)N1C(=O)[C@@](C)(CC(=O)NCCCOCCOCCOCCCNc2cccc3c2C(=O)N(C2CCC(=O)NC2=O)C3=O)C[C@H](c2cccc(Cl)c2)[C@H]1c1ccc(Cl)cc1` (stereo partly drawn) [Cpd. No. 61, 2-((3R,5R,6S)-5-(3-chlorophenyl)-6-(4-chlorophenyl)-1-((S)-1-(isopropylsulfonyl)-3-methylbutan-2-yl)-3-methyl-2-oxopiperidin-3-yl)-N-(3-(2-(2-(3-((2-(2,6-dioxopiperidin-3-yl)-1,3-dioxoisoindolin-4-yl)amino)propoxy)ethoxy)ethoxy)propyl)acetamide] returned a half-maximal inhibitory concentration (IC50) of 98 nM. The compound `O=C1CCC(N2Cc3c(NCc4cn(CCCNC(=O)c5ccc(NC(=O)[C@@H]6NC7(CCCCC7)[C@@]7(C(=O)Nc8cc(Cl)ccc87)[C@H]6c6cccc(Cl)c6F)cc5)cn4)cccc3C2=O)C(=O)N1` (stereo partly drawn) [Cpd. No. 39, (3′R,4'S,5′R)-6″-chloro-4′-(3-chloro-2-fluorophenyl)-N-(4-((3-(4-(((2-(2,6-dioxopiperidin-3-yl)-1-oxoisoindolin-4-yl)amino)methyl)-1H-imidazol-1-yl)propyl)carbamoyl)phenyl)-2″-oxodispiro[cyclohexane-1,2′-pyrrolidine-3′,3″-indoline]-5′-carboxamide] yielded an IC50 of 1.5 nM. The compound `O=C1CCC(N2Cc3c(NC(=O)CCOCCOCCOCCNC(=O)c4ccc(NC(=O)[C@@H]5NC6(CCCCC6)[C@@]6(C(=O)Nc7cc(Cl)ccc76)[C@H]5c5cccc(Cl)c5F)cc4)cccc3C2=O)C(=O)N1` (stereo partly drawn) [Cpd. No. 30, (3′R,4'S,5′R)-6″-chloro-4′-(3-chloro-2-fluorophenyl)-N-(4-((2-(2-(2-(3-((2-(2,6-dioxopiperidin-3-yl)-1-oxoisoindolin-4-yl)amino)-3-oxopropoxy)ethoxy)ethoxy)ethyl)carbamoyl)phenyl)-2″-oxodispiro[cyclohexane-1,2′-pyrrolidine-3′,3″-indoline]-5′-carboxamide] had a 50% inhibitory concentration (IC50) of 13 nM. Compared with the last compound, the IC50 is about 8.7-fold higher. For `O=C1CCC(N2C(=O)c3cccc(NCCCCCCCNC(=O)c4ccc(NC(=O)[C@@H]5NC6(CCCCC6)[C@@]6(C(=O)Nc7cc(Cl)ccc76)[C@H]5c5cccc(Cl)c5F)cc4)c3C2=O)C(=O)N1` (stereo partly drawn) [Cpd. No. 12, (3′R,4'S,5′R)-6″-chloro-4′-(3-chloro-2-fluorophenyl)-N-(4-((7-((2-(2,6-dioxopiperidin-3-yl)-1,3-dioxoisoindolin-4-yl)amino)heptyl)carbamoyl)phenyl)-2″-oxodispiro[cyclohexane-1,2′-pyrrolidine-3′,3″-indoline]-5′-carboxamide], the half-maximal inhibitory concentration (IC50) came to 100 nM.

Take `O=C1CCC(N2Cc3c(NC(=O)CCCCNC(=O)c4ccc(NC(=O)[C@@H]5NC6(CCCCC6)[C@@]6(C(=O)Nc7cc(Cl)ccc76)[C@H]5c5cccc(Cl)c5F)cc4)cccc3C2=O)C(=O)N1` (stereo partly drawn) [Cpd. No. 28, (3′R,4'S,5′R)-6″-chloro-4′-(3-chloro-2-fluorophenyl)-N-(4-((5-((2-(2,6-dioxopiperidin-3-yl)-1-oxoisoindolin-4-yl)amino)-5-oxopentyl)carbamoyl)phenyl)-2″-oxodispiro[cyclohexane-1,2′-pyrrolidine-3′,3″-indoline]-5′-carboxamide]: the concentration for half-maximal inhibition (IC50) was determined as 7 nM.

In turn, `Cc1ncsc1-c1ccc(CNC(=O)[C@@H]2C[C@@H](O)CN2C(=O)[C@@H](NC(=O)CCCCNC(=O)c2ccc(NC(=O)[C@@H]3NC4(CCCCC4)[C@@]4(C(=O)Nc5cc(Cl)ccc54)[C@H]3c3cccc(Cl)c3F)cc2)C(C)(C)C)cc1` [compound 41] returned an IC50 of 991 nM. Consider `COc1cc(C(=O)NCCCOCCOCCOCCCNc2cccc3c2C(=O)N(C2CCC(=O)NC2=O)C3=O)ccc1NC(=O)[C@@H]1N[C@@H](CC(C)(C)C)[C@](C#N)(c2ccc(Cl)cc2F)[C@H]1c1cccc(Cl)c1F` (stereo partly drawn) [Cpd. No. 58, (2R,3S,4R,5S)-3-(3-chloro-2-fluorophenyl)-4-(4-chloro-2-fluorophenyl)-4-cyano-N-(4-((3-(2-(2-(3-((2-(2,6-dioxopiperidin-3-yl)-1,3-dioxoisoindolin-4-yl)amino)propoxy)ethoxy)ethoxy)propyl)carbamoyl)-2-methoxyphenyl)-5-neopentylpyrrolidine-2-carboxamide], for which the midpoint of inhibition, the IC50, lay at 14 nM.

`Cc1ncsc1-c1ccc(CNC(=O)[C@@H]2C[C@@H](O)CN2C(=O)[C@@H](NC(=O)CCOCCOCCNC(=O)c2ccc(NC(=O)[C@@H]3NC4(CCCCC4)[C@@]4(C(=O)Nc5cc(Cl)ccc54)[C@H]3c3cccc(Cl)c3F)cc2)C(C)(C)C)cc1` [compound 42]: half-maximal inhibition (IC50) required 677 nM. For `O=C1CCC(N2Cc3c(CCCOCCOCCOCCNC(=O)c4ccc(NC(=O)[C@@H]5NC6(CCCCC6)[C@@]6(C(=O)Nc7cc(Cl)ccc76)[C@H]5c5cccc(Cl)c5F)cc4)cccc3C2=O)C(=O)N1` (stereo partly drawn) [Cpd. No. 37, (3′R,4'S,5′R)-6″-chloro-4′-(3-chloro-2-fluorophenyl)-N-(4-((2-(2-(2-(3-(2-(2,6-dioxopiperidin-3-yl)-1-oxoisoindolin-4-yl)propoxy)ethoxy)ethoxy)ethyl)carbamoyl)phenyl)-2″-oxodispiro[cyclohexane-1,2′-pyrrolidine-3′,3″-indoline]-5′-carboxamide], it took 3.8 nM to reach half-maximal inhibition (IC50).

Turning to `COc1cc(C(=O)NCCOCCOCCNc2cccc3c2C(=O)N(C2CCC(=O)NC2=O)C3=O)ccc1NC(=O)[C@@H]1N[C@@H](CC(C)(C)C)[C@](C#N)(c2ccc(Cl)cc2F)[C@H]1c1cccc(Cl)c1F` (stereo partly drawn) [Cpd. No. 57, (2R,3S,4R,5S)-3-(3-chloro-2-fluorophenyl)-4-(4-chloro-2-fluorophenyl)-4-cyano-N-(4-((2-(2-(2-((2-(2,6-dioxopiperidin-3-yl)-1,3-dioxoisoindolin-4-yl)amino)ethoxy)ethoxy)ethyl)carbamoyl)-2-methoxyphenyl)-5-neopentylpyrrolidine-2-carboxamide], the IC50 was 13 nM. In turn, `CCN1[C@@H](C(=O)NC23CCC(C(=O)NCCOCCOCCNC(=O)COc4cccc5c4C(=O)N(C4CCC(=O)NC4=O)C5=O)(CC2)CC3)[C@H](c2cccc(Cl)c2F)[C@]2(C(=O)Nc3cc(Cl)ccc32)C12CCCCC2` (stereo partly drawn) [Cpd. No. 45, (3′R,4'S,5′R)-6″-chloro-4′-(3-chloro-2-fluorophenyl)-N-(4-((2-(2-(2-(2-((2-(2,6-dioxopiperidin-3-yl)-1,3-dioxoisoindolin-4-yl)oxy)acetamido)ethoxy)ethoxy)ethyl)carbamoyl)bicyclo[2.2.2]octan-1-yl)-1′-ethyl-2″-oxodispiro[cyclohexane-1,2′-pyrrolidine-3′,3″-indoline]-5′-carboxamide] returned an IC50 of 35 nM. Compared with the last compound, the IC50 is about 2.7-fold higher.

`Cc1ncsc1-c1ccc(CNC(=O)[C@@H]2C[C@@H](O)CN2C(=O)[C@@H](NC(=O)CCOCCOCCOCCNC(=O)c2ccc(NC(=O)[C@@H]3NC4(CCCCC4)[C@@]4(C(=O)Nc5cc(Cl)ccc54)[C@H]3c3cccc(Cl)c3F)cc2)C(C)(C)C)cc1` [compound 43] returned an IC50 of 445 nM. On to `CC(C)[C@@H](CS(=O)(=O)C(C)C)N1C(=O)[C@@](C)(CC(=O)NCCOCCOCCNc2cccc3c2C(=O)N(C2CCC(=O)NC2=O)C3=O)C[C@H](c2cccc(Cl)c2)[C@H]1c1ccc(Cl)cc1` (stereo partly drawn) [Cpd. No. 60, 2-((3R,5R,6S)-5-(3-chlorophenyl)-6-(4-chlorophenyl)-1-((S)-1-(isopropylsulfonyl)-3-methylbutan-2-yl)-3-methyl-2-oxopiperidin-3-yl)-N-(2-(2-(2-((2-(2,6-dioxopiperidin-3-yl)-1,3-dioxoisoindolin-4-yl)amino)ethoxy)ethoxy)ethyl)acetamide], for which inhibition was half-maximal at 404 nM (IC50).

The values above are taken from patent publication US12637473B2, “MDM2 protein degraders” (THE REGENTS OF THE UNIVERSITY OF MICHIGAN, priority 2016, dated 2026).
